According to the NIST ThermoML archive (doi:10.1021/je700512a):
Numbers after ± are expanded uncertainties.

Conditions: Liquid, Ebulliometric method (Recirculating still)

| SMILES | vapor or sublimation pressure (288.15 K) [kPa] | vapor or sublimation pressure (298.15 K) [kPa] | vapor or sublimation pressure (308.15 K) [kPa] |
| --- | --- | --- | --- |
| C1COCCO1 [1,4-dioxane] | 2.703 ± 0.053 | 4.975 ± 0.061 | 8.119 ± 0.068 |
| O [water] | 1.706 ± 0.04 | 3.172 ± 0.047 | 5.556 ± 0.055 |
